Experimental findings from patent publication US5817668A, “S-heteroatom containing alkyl substituted-3-oxo-pyrido[1,2-A]benzimidozole-4-carboxamide derivatives useful in treating central nervous system disorders” (Ortho Pharmaceutical Corporation, priority 1997, dated 1998) are described below.

Where two headings read alike, the source gives them in different places.

In experiment [1] the target is benzodiazepine site of the GABA-A receptor. In words: Benzodiazepine receptor binding: inhibition of 3H-flunitrazepam binding to prepared receptor membranes. To be noted: read-out: GABAA Receptor Binding IC50; 3H-flunitrazepam ca. 3 nM, 10-20 min, 25 °C; >10,000 = not active.
Experiment [2] concerns metrazol-induced convulsions in male CD1 mice. In words: Suppression of metrazol-induced clonic convulsions in adult male mice. It is filed as in vivo, mouse (male CD1). To be noted: Mus musculus, 0.5 h, >30 = active dose not determined. The procedure: […] Water was not withheld except during the period of observations. […] Metrazol was dissolved in 0.9% sodium chloride solution, and its dose volume was 10 ml/kg. Animals were housed individually for observation of clonic convulsions, tonic convulsions and death for a period of 30 min. […] The biological assay was considered to be valid if the effects of a known anticonvulsant (positive control) were detected, within the same experiment. Activity was reported as percent reduction of clonic convulsions from the vehicle group.

For experiment [3], the system named is behavior suppressed by punishment (conflict) in male rats. In words: Suppression of anxiety in adult male rat (punished-licking conflict test, Vogel). To be noted: minimum effective dose, >10 = active dose not yet determined; for minimal effective dose: Rattus norvegicus. The format is in vivo. As for the experimental part: Male rats were deprived of water for 48 hours and were deprived of food for 24 hours prior to testing. After the first 24 hours of water deprivation, they were placed in the conflict chamber for a training period; wherein, they were allowed 200 unpunished licks from a bottle containing tap water. The experiment was run the next day. At the expected time of peak activity, the animals were placed in the chamber and allowed access to tap water. […] Their first lick initiates a 3-min test session. Subsequently,every 20th lick was punished by a 0.2-s shock delivered via the stainless-steel drinking-tube.
The Wilcoxon rank-sum test (Mann-Whitney U-test) was used to test for an increase (p<0.05, 1-tailed) in the median number of shocks in drug-treatedgroups, compared to a concurrently run vehicle-treated group. The biological assay is considered to be valid if the effects of a known anxiolytic (positive control) are detected, within the same experiment.

The mark [4] stands for this setting: ip, ip, read-out: Mouse Metrazol ED50, ip.
The mark [5] stands for this setting: po, po, read-out: Mouse Metrazol ED50, po.
The mark [6] stands for this setting: po, read-out: Rat Conflict MED, po.
[7] abbreviates: ip, read-out: Rat Conflict MED, ip.

By IC50 is commonly meant the point on the concentration scale where inhibition reaches its midpoint. Broadly, the ED50 is the dose at which the effect has come halfway, by size or by number of responders.

As to `O=C1CCN2C(=C1C(=O)Nc1ccccc1F)N(CCNC(=O)c1ccccc1)c1cc(F)ccc12` [Compound 46], the IC50 in experiment [1] worked out at 6.1 nM.
Take `COc1ccc(NC(=O)C2=C3N(CC#N)c4cc(F)ccc4N3CCC2=O)cc1` [Compound 82]: the results for the ED50 in experiment [2] (setting [4]) and in experiment [2] (setting [5]) were less than 1 mg/kg and greater than 30 mg/kg, respectively. The minimal effective dose in experiment [3] (setting [6]) was greater than 10 mg/kg. For the same compound, the IC50 in experiment [1] was found to be 8.55 nM.
`C#CCN1C2=C(C(=O)Nc3ccccc3F)C(=O)CCN2c2ccc(F)cc21` [Compound 85]: the 50% effective dose (ED50) was determined as 0.006 mg/kg in experiment [2] (setting [4]) and 1 mg/kg in experiment [2] (setting [5]). Also, the minimal effective dose in experiment [3] (setting [7]) was less than 10 mg/kg; in experiment [3] (setting [6]), 1 mg/kg. Also, the IC50 in experiment [1] was found to be 0.072 nM.
As for `CN1CCCC(N2C3=C(C(=O)Nc4c(F)cccc4F)C(=O)CCN3c3ccc(F)cc32)C1` (centres unmarked) [Compound 86], the ED50 was greater than 10 mg/kg in experiment [2] (setting [4]) and greater than 30 mg/kg in experiment [2] (setting [5]). In addition, the results for the minimal effective dose in experiment [3] (setting [7]) and in experiment [3] (setting [6]) were 10 mg/kg and greater than 10 mg/kg, respectively. In experiment [1], the IC50 was found to be 26.3 nM.
In the case of `CC(=O)OCCN1C2=C(C(=O)Nc3ccccc3F)C(=O)CCN2c2ccc(F)cc21` [Compound 119, 7-Fluoro-1,2-dihydro-5-(2-acetoxyethyl)-3-oxo-N-(2-fluorophenyl)pyrido[1,2-a]benzimidazole-4-carboxamide], the IC50 in experiment [1] amounted to 0.25 nM.
Turning to `CCOCN1C2=C(C(=O)Nc3ccccc3F)C(=O)CCN2c2c1ccc(F)c2F` [Compound 128], the ED50 in experiment [2] (setting [4]) was no less than 1 mg/kg; in experiment [2] (setting [5]), greater than 30 mg/kg. In experiment [3] (setting [6]), the minimal effective dose was greater than 10 mg/kg. Further, the IC50 in experiment [1] was 126 nM.
With `COCCN1C2=C(C(=O)Nc3nccs3)C(=O)CCN2c2ccc(F)cc21` [Compound 140], in experiment [3] (po), the “Rat Conflict MED, po” value is greater than 10 mg/kg.
Consider `COCCN1C2=C(C(=O)Nc3nccs3)C(=O)CCN2c2ccc(F)cc21` [Compound 155], for which the “Rat Conflict MED, po” value in experiment [3] (po) turned out to be 3 mg/kg.
`CCOCCN1C2=C(C(=O)Nc3ccccc3F)C(=O)CCN2c2ccc(F)cc21` [Compound 160]: the values for the ED50 in experiment [2] (setting [4]) and in experiment [2] (setting [5]) were less than 1 mg/kg and 0.3 mg/kg, respectively. The values for the minimal effective dose in experiment [3] (setting [7]) and in experiment [3] (setting [6]) were less than 10 mg/kg and 1 mg/kg, respectively. Further, the IC50 in experiment [1] is 0.48 nM.
Turning to `O=C1CCN2C(=C1C(=O)Nc1ccccc1F)N(CC(O)CO)c1cc(F)ccc12` (centres unmarked) [Compound 162, 7-Fluoro-1,2-dihydro-5-[2,3-dihydroxypropyl]-3-oxo-N-(2-fluorophenyl)pyrido[1,2-a]benzimidazole-4-carboxamide], in experiment [1], the IC50 turned out to be 16 nM.
Turning to `C[S+]([O-])CCN1C2=C(C(=O)Nc3ccccc3F)C(=O)CCN2c2ccc(F)cc21` (centres unmarked) [Compound 183, 7-Fluoro-1,2-dihydro-5-[2-(methylsulfoxy)ethyl]-3-oxo-N-(2-fluorophenyl)pyrido[1,2-a]benzimidazole-4-carboxamide], in experiment [1], the IC50 stood at 6.19 nM.
